Assay results reported in PubChem BioAssay AID2060888 (Molecular Pharmacology Branch, DTP, NCI, 2025).

System: 695427-040-R-J1-PDC complex spheroid viability
Assay: Anticancer human tumor 695427-040-R-J1-PDC patient-derived colon adenocarcinoma cell line growth inhibition [RAS]
Conditions: for IC50: curve of first compound; for viability, T/C: stronger effect = lower value
Procedure, shortened: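 Multi-cell-type spheroids: tumor cells plus HUVEC endothelial cells and mesenchymal stem cells. RAS-pathway inhibitors were combined with targeted agents, each dosed in half-log steps down from clinical Cmax, or from 10 microM when Cmax was unknown.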

[1] = second compound 0.0316 µM, first compound 0.0316 µM
[2] = second compound 0.0316 µM, first compound 0.1 µM
[3] = second compound 0.0316 µM, first compound 0.316 µM
[4] = second compound 0.0316 µM, first compound 1 µM
[5] = second compound 0.1 µM, first compound 0.0316 µM
[6] = second compound 0.1 µM, first compound 0.1 µM
[7] = second compound 0.1 µM, first compound 0.316 µM
[8] = second compound 0.1 µM, first compound 1 µM
[9] = second compound 0.316 µM, first compound 0.0316 µM
[10] = second compound 0.316 µM, first compound 0.1 µM
[11] = second compound 0.316 µM, first compound 0.316 µM
[12] = second compound 0.316 µM, first compound 1 µM
[13] = second compound 1 µM, first compound 0.0316 µM
[14] = second compound 1 µM, first compound 0.1 µM
[15] = second compound 1 µM, first compound 0.316 µM
[16] = second compound 1 µM, first compound 1 µM
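Further: viability read after seven days of drug exposure.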
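Wherever viability, T/C is given: 100% = DMSO vehicle control viability.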

C[C@@H](NC(=O)c1ncnc(N)c1Cl)c1ncc(C(=O)Nc2cc(C(F)(F)F)c(Cl)cn2)s1 + C#Cc1c(F)ccc2cc(O)cc(-c3ncc4c(N5CC6CCC(C5)N6)nc(OCC56CCCN5CC(F)C6)nc4c3F)c12
IC50 (second compound 0.0316 µM): > 10000 nM | IC50 (second compound 0.1 µM): > 10000 nM | IC50 (second compound 0.316 µM): > 10000 nM | IC50 (second compound 1 µM): > 10000 nM | IC50 (second compound 3.16 µM): > 10000 nM | IC50 (second compound 10 µM): < 31.6 nM | viability, T/C [1]: 99.8% | viability, T/C [2]: 117% | viability, T/C [3]: 108% | viability, T/C [4]: 102% | viability, T/C (second compound 0.0316 µM, first compound 3.16 µM): 101% | viability, T/C (second compound 0.0316 µM, first compound 10 µM): 80.2% | viability, T/C [5]: 109% | viability, T/C [6]: 106% | viability, T/C [7]: 101% | viability, T/C [8]: 100% | viability, T/C (second compound 0.1 µM, first compound 3.16 µM): 94.3% | viability, T/C (second compound 0.1 µM, first compound 10 µM): 70.9% | viability, T/C [9]: 99.8% | viability, T/C [10]: 95.1% | viability, T/C [11]: 101% | viability, T/C [12]: 93% | viability, T/C (second compound 0.316 µM, first compound 3.16 µM): 81.6% | viability, T/C (second compound 0.316 µM, first compound 10 µM): 70.3% | viability, T/C [13]: 87.9% | viability, T/C [14]: 83.2% | viability, T/C [15]: 88.5% | viability, T/C [16]: 84.1% | viability, T/C (second compound 1 µM, first compound 3.16 µM): 76.3% | viability, T/C (second compound 1 µM, first compound 10 µM): 57.2% | viability, T/C (second compound 3.16 µM, first compound 0.0316 µM): 59.2% | viability, T/C (second compound 3.16 µM, first compound 0.1 µM): 60.5% | viability, T/C (second compound 3.16 µM, first compound 0.316 µM): 65.9% | viability, T/C (second compound 3.16 µM, first compound 1 µM): 63.9% | viability, T/C (second compound 3.16 µM, first compound 3.16 µM): 56.9% | viability, T/C (second compound 3.16 µM, first compound 10 µM): 42.5% | viability, T/C (second compound 10 µM, first compound 0.0316 µM): 35.1% | viability, T/C (second compound 10 µM, first compound 0.1 µM): 34.4% | viability, T/C (second compound 10 µM, first compound 0.316 µM): 42.2% | viability, T/C (second compound 10 µM, first compound 1 µM): 37.9% | viability, T/C (second compound 10 µM, first compound 3.16 µM): 41.3% | viability, T/C (second compound 10 µM, first compound 10 µM): 27.8%

Nc1ccn(C2OC(CO)C(O)C2(F)F)c(=O)n1 (centres undefined) + C=CC(=O)N1CCN(c2nc(OCC3CCCN3C)nc3c(F)c(-c4nc(N)cc(C)c4C(F)(F)F)c(Cl)cc23)C(C)C1
IC50 (second compound 0.00316 µM): > 1000 nM | IC50 (second compound 0.01 µM): > 1000 nM | IC50 (second compound 0.0316 µM): > 1000 nM | IC50 (second compound 0.1 µM): > 1000 nM | IC50 (second compound 0.316 µM): > 1000 nM | IC50 (second compound 1 µM): > 1000 nM | viability, T/C (second compound 0.00316 µM, first compound 0.00316 µM): 93.3% | viability, T/C (second compound 0.00316 µM, first compound 0.01 µM): 88.1% | viability, T/C (second compound 0.00316 µM, first compound 0.0316 µM): 77.5% | viability, T/C (second compound 0.00316 µM, first compound 0.1 µM): 84.9% | viability, T/C (second compound 0.00316 µM, first compound 0.316 µM): 72.1% | viability, T/C (second compound 0.00316 µM, first compound 1 µM): 69.6% | viability, T/C (second compound 0.01 µM, first compound 0.00316 µM): 94.4% | viability, T/C (second compound 0.01 µM, first compound 0.01 µM): 87.2% | viability, T/C (second compound 0.01 µM, first compound 0.0316 µM): 84.3% | viability, T/C (second compound 0.01 µM, first compound 0.1 µM): 74.3% | viability, T/C (second compound 0.01 µM, first compound 0.316 µM): 76.2% | viability, T/C (second compound 0.01 µM, first compound 1 µM): 69.5% | viability, T/C (second compound 0.0316 µM, first compound 0.00316 µM): 92.9% | viability, T/C (second compound 0.0316 µM, first compound 0.01 µM): 80.5% | viability, T/C [1]: 77.9% | viability, T/C [2]: 73.8% | viability, T/C [3]: 76.5% | viability, T/C [4]: 70.8% | viability, T/C (second compound 0.1 µM, first compound 0.00316 µM): 96.9% | viability, T/C (second compound 0.1 µM, first compound 0.01 µM): 78.4% | viability, T/C [5]: 77.8% | viability, T/C [6]: 80.2% | viability, T/C [7]: 74.2% | viability, T/C [8]: 72.9% | viability, T/C (second compound 0.316 µM, first compound 0.00316 µM): 93.8% | viability, T/C (second compound 0.316 µM, first compound 0.01 µM): 84.2% | viability, T/C [9]: 91.3% | viability, T/C [10]: 77.5% | viability, T/C [11]: 80.4% | viability, T/C [12]: 69.7% | viability, T/C (second compound 1 µM, first compound 0.00316 µM): 92.7% | viability, T/C (second compound 1 µM, first compound 0.01 µM): 85.5% | viability, T/C [13]: 77.9% | viability, T/C [14]: 81.5% | viability, T/C [15]: 86.9% | viability, T/C [16]: 69.7%
